Reference: ChEMBL document CHEMBL1201862, “PubChem BioAssay data set” (2004)
The source made the active and inactive calls.

Key:
[1] = target: Luciferin 4-monooxygenase (Photinus pyralis, UniProt P08659); assay: firefly luciferase enzyme inhibitors, dose response, biochemical, luminescence (AID 1891)
[2] = LGR2 antagonists, dose response, cell-based, HEK293, CRE-luciferase reporter, cherry pick, set 2 (AID 743343); format: functional;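 further: transfected cells were stimulated with diluted bursicon conditioned medium after compound addition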
[3] = HepG2 cell cytotoxicity, dose response, cytotoxicity control, plate reader, cherry-pick, antagonist series (AID 743416); format: functional, cell-based
[4] = MC4R antagonists, dose response, counter-screen for LGR2 antagonist project, cell-based, plate reader, cherry pick (AID 743444); format: functional;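 further: transfected HEK 293 cells stimulated with alpha-MSH peptide; potency of inhibitors of the alpha-MSH evoked signal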
[5] = Luminescence Cell-Based Dose Confirmation HTS to Identify Inhibitors of Platelet Dense Granule Release. [Related pubchem assays: 1663 (Primary HTS), 1678 (Summary of Project)]; format: functional
[6] = A549 cell cytotoxicity, dose response, cytotoxicity control, plate reader, cherry-pick, antagonist series (AID 743412); format: functional, cell-based
[7] = HEK293 cell cytotoxicity, dose response, cytotoxicity control, plate reader, cherry-picked samples (AID 743446); format: functional, cell-based
[8] = target: Paired box protein Pax-8 (Homo sapiens, UniProt Q06710); assay: inhibitors of PAX8-driven TPO luciferase reporter, dose response, RMG-I cells, cherry-pick (AID 687027); format: functional, cell-based;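 further: luciferase reporter driven by Pax8 target thyroperoxidase promoter measured by SteadyGlo luminescence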
Chain of Paired box protein Pax-8 (Q06710 whole entry): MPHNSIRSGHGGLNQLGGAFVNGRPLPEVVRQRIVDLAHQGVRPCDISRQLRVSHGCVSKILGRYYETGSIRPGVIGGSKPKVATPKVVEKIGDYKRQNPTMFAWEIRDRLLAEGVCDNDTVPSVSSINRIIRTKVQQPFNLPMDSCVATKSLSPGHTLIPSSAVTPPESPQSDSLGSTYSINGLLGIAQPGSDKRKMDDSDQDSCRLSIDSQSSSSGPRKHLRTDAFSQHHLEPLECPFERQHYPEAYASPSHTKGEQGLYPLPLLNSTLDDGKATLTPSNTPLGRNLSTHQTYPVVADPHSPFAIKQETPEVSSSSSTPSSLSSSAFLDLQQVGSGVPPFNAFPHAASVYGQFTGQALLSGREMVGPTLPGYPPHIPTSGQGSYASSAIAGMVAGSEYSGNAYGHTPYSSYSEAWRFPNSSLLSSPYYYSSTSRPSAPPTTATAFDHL

[9] = NIH:OVCAR-3 ovarian cancer cell cytotoxicity, dose response, PAX8 inhibitor project, plate reader, dry powder samples (AID 743044); format: functional, cell-based
[10] = IGROV1 ovarian cancer cell cytotoxicity, dose response, PAX8 inhibitor project, plate reader, dry powder samples (AID 743043); format: functional, cell-based; conditions: IGROV-1
[11] = cytotoxicity in OVCAR8 ovarian cancer cells, dose response, PAX8 project, cell-based, plate reader, dry powder samples (AID 743197); format: functional; conditions: OVCAR-8
[12] = target: T1, RNA-binding protein pos-1 (Caenorhabditis elegans, UniProt G5EF15); assay: inhibitors of POS-1/mex-3 RNA binding, dose response, biochemical, fluorescence polarization (AID 1964);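 further: purified POS-1 fused to maltose binding protein made in E. coli; potency of compounds blocking POS-1 binding to fluorescent RNA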
T1 sequence (G5EF15 whole entry): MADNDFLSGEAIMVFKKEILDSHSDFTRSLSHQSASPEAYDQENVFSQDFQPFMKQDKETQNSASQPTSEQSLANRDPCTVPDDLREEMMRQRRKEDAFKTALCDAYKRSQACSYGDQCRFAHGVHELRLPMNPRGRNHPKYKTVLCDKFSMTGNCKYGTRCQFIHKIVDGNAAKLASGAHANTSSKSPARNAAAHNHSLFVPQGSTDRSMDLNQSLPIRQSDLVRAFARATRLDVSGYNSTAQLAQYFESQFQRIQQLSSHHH

[13] = target: T2, Replicative DNA helicase DnaB (Mycobacterium tuberculosis, UniProt P9WMR3); assay: DnaB intein splicing inhibitors, dose response, biochemical, cell-free fluorescence (AID 449749); format: functional
T2 sequence (P9WMR3 whole entry): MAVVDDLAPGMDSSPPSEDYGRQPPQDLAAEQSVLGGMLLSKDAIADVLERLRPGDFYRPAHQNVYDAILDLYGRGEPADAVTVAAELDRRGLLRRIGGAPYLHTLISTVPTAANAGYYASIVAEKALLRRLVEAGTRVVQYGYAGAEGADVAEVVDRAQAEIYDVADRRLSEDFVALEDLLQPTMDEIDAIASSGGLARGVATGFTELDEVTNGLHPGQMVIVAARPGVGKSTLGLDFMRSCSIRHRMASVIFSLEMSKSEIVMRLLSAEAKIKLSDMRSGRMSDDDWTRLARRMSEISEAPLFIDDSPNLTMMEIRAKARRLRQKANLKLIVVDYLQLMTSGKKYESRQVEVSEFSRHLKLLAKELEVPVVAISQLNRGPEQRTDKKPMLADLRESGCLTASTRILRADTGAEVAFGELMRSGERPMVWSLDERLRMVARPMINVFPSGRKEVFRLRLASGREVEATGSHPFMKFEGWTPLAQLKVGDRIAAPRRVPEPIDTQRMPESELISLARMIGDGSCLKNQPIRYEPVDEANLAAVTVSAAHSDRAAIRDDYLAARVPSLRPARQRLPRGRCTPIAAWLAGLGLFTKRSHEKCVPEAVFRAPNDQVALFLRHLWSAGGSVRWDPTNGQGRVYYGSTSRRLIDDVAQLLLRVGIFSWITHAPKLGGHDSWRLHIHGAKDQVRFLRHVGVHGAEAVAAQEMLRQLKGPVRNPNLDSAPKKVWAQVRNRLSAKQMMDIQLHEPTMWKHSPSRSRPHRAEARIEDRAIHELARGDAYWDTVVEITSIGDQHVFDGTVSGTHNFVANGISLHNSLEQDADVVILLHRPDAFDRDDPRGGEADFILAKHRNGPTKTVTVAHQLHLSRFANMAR

[14] = target: T3, Zinc finger protein mex-5 (Caenorhabditis elegans, UniProt Q9XUB2); assay: MEX-5/TCR-2 RNA interaction inhibitors, dose response, biochemical, C. elegans, fluorescence polarization (AID 1960)
T3 sequence (Q9XUB2 whole entry): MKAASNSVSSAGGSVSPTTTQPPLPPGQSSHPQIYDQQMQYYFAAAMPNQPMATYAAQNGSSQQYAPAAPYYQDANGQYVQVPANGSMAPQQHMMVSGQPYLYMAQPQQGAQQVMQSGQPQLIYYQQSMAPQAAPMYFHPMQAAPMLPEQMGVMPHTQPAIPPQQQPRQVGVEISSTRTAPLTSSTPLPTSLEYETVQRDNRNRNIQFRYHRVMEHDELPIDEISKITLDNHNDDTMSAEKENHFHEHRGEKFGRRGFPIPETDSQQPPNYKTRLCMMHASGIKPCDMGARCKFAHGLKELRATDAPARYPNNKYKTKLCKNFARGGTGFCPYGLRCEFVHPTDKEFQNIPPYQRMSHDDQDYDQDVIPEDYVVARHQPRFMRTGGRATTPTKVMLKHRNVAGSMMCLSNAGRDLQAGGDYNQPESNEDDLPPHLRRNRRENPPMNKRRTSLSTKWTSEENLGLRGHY

[15] = target: T4, Protein RecA (Mycobacterium tuberculosis, UniProt P9WHJ3); assay: Fluorescence Cell-Free Homogeneous Dose Retest to Identify Inhibitors of RecA-Intein Splicing Activity. [Related pubchem assays (depositor defined):AID2097, AID2223, AID489010, AID492950]; format: functional
T4 sequence (P9WHJ3 whole entry): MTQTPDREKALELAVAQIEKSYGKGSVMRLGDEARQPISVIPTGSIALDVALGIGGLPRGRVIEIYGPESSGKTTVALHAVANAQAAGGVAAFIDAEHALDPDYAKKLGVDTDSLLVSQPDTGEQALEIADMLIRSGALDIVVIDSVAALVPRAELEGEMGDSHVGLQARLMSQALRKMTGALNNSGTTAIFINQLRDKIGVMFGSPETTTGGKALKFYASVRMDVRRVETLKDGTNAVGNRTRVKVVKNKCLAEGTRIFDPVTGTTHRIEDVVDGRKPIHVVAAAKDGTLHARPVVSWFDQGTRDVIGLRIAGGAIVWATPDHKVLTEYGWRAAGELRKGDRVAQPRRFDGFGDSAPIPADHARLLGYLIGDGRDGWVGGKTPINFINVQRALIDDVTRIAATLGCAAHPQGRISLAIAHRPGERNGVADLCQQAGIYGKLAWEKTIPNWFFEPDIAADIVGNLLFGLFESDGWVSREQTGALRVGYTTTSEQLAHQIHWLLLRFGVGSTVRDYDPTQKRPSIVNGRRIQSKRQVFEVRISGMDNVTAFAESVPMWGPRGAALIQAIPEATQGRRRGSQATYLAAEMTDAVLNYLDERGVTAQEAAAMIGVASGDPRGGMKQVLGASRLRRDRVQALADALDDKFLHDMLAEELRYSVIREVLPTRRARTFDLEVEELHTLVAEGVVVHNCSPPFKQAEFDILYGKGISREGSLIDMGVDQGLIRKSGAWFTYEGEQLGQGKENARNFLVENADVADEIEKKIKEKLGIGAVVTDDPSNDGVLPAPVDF

[16] = target: Histone-lysine N-methyltransferase NSD2 (Homo sapiens, UniProt O96028); format: biochemical
Chain of Histone-lysine N-methyltransferase NSD2 (O96028 whole entry): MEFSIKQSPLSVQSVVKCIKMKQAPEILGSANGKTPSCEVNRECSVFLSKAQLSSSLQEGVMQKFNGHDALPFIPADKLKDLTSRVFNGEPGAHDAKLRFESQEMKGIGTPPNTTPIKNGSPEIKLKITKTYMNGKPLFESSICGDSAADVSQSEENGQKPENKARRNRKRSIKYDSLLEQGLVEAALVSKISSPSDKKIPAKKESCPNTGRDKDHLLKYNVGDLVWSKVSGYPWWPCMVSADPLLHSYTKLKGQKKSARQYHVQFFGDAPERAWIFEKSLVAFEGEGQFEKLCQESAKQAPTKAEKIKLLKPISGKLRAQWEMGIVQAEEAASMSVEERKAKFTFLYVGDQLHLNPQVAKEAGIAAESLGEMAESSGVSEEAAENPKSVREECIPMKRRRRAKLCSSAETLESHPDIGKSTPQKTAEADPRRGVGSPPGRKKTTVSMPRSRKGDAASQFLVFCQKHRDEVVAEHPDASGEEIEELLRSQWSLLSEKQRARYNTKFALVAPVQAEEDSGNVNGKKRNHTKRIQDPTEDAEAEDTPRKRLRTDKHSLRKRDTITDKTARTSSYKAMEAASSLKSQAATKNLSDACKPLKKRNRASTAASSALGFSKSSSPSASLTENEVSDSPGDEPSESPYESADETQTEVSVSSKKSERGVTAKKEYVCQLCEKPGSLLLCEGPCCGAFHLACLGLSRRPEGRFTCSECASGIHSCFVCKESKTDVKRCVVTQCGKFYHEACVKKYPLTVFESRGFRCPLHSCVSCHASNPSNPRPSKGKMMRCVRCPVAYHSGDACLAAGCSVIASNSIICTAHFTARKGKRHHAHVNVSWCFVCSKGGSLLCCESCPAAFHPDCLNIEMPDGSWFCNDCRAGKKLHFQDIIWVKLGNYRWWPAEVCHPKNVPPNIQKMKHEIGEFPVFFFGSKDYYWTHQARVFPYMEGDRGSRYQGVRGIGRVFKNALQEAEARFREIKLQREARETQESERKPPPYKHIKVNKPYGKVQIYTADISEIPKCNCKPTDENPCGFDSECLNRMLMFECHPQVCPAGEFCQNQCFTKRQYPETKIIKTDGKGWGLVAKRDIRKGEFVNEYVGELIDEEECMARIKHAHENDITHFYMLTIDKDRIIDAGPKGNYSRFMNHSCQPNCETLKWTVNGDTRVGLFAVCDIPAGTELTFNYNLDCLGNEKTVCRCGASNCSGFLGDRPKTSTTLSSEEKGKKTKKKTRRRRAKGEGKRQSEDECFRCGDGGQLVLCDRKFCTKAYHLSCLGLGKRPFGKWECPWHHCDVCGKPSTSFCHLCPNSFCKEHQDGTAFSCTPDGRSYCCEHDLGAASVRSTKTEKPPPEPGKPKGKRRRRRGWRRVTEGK

Chain of Luciferin 4-monooxygenase (P08659 whole entry): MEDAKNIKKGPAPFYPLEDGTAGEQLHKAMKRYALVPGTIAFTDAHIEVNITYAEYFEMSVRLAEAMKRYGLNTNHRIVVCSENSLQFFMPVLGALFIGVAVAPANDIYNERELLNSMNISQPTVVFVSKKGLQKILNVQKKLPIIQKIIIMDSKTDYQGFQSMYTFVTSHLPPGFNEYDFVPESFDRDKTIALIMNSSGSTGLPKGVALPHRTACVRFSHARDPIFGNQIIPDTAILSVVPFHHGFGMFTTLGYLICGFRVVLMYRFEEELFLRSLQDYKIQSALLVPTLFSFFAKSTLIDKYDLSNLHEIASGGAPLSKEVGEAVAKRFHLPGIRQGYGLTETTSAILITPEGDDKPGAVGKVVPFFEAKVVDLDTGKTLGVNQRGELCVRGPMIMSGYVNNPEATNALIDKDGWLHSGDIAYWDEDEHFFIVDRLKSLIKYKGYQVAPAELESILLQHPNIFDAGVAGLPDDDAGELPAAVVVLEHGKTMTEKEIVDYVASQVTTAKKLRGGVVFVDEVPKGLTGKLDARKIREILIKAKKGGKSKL

With Cc1cccc(NC(=O)c2ccc3c(c2)OCCO3)c1 the EC50 [1] was 6.2 µM (active), the AC50 [2] was 7.92 µM (active) and the AC50 [3] was > 52 µM (inactive). The AC50 [4] was 9.29 µM (active), the EC50 [5] was 6.74 µM (active) and the AC50 [6] was > 52 µM (inactive). For the same compound, the AC50 [7] was > 52 µM (inactive).
For COc1ccc(S(=O)(=O)Nc2ccc3c(c2)CC(=O)N([C@@H](C)CO)C[C@H](C)[C@@H](CN(C)Cc2ccc(Cl)c(Cl)c2)O3)cc1, the AC50 [2] was 20.5 µM (active), the AC50 [3] was 14.3 µM (active) and the AC50 [4] was 15.9 µM (active). The AC50 [6] was 12.4 µM (active) and the AC50 [7] was 15.7 µM (active).
With COc1ccc(S(=O)(=O)Nc2ccc3c(c2)C(=O)N([C@@H](C)CO)C[C@H](C)[C@@H](CN(C)C(=O)Nc2ccc(C(F)(F)F)cc2)OCCCC[C@@H](C)O3)cc1 the AC50 [8] was 9.96 µM (active), the AC50 [9] was 20.5 µM (active) and the AC50 [10] was 41.5 µM (active). The AC50 [11] was 29.6 µM (active).
With CC1=NN(c2ccc(C(=O)O)c(N)c2)C(=O)C1 the EC50 [12] was 85.5 µM (active), the AC50 [13] was 3.01 µM (active) and the EC50 [14] was 38.3 µM (active). For the same compound, the EC50 [15] was 1.98 µM (active) and the AC50 [16] was > 20 µM (inactive).
